According to patent US20130303509A1, “NAMPT INHIBITORS” (AbbVie Inc., priority 2012, published 2013):

Test system: not given
Experiment: not given
Settings: model of T-cell mediated autoimmune disorders; cited from earlier work

In the case of O=C(/C=C/c1cccnc1)NCCCCC1CCN(C(=O)c2ccccc2)CC1 [FK866], the “manifestations of experimental autoimmune encephalomyelitis” value is given as “ameliorated the manifestations”.

Test system: activated T cells
Experiment: not given
Settings: cited from earlier work

For O=C(/C=C/c1cccnc1)NCCCCC1CCN(C(=O)c2ccccc2)CC1 [FK866], the “proliferation and apoptosis of activated T cells” value is given as “selectively block proliferation and induce apoptosis”.

Test system: PC3 cells
Experiment: NAMPT Cell Proliferation Assay
Format: cell-based
Settings: Homo sapiens, PC-3, 120 h, 5 days incubation, cell viability by Cell Titer Glo
Summary of the method: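 Five-day CellTiter-Glo viability readout in PC3 cells grown in RPMI/10% heat-inactivated FBS. Compounds added after overnight attachment as a 10-fold dilution series, […]. Percent inhibition fitted to sigmoidal dose-response to derive IC50.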

Point of comparison: O=C(Nc1ccc(C2(F)CCN(C(=O)c3ccccc3F)CC2)cc1)C1CN(c2cccnn2)C1 [Example 857, N-{4-[4-fluoro-1-(2-fluorobenzoyl)piperidin-4-yl]phenyl}-1-(pyridazin-3-yl)azetidine-3-carboxamide], IC50 2.52 nM. Against it:
- CC(C)C(=O)N1CCC(c2ccc(NC(=O)C3CN(c4cccnn4)C3)c(F)c2)CC1 [Example 858, N-{2-fluoro-4-[1-(2-methylpropanoyl)piperidin-4-yl]phenyl}-1-(pyridazin-3-yl)azetidine-3-carboxamide] — 1.7-fold higher, 4.36 nM
- CC(C)(C)C(=O)N1CCC(c2ccc(NC(=O)C3CN(c4cccnn4)C3)c(F)c2)CC1 [Example 859, N-{4-[1-(2,2-dimethylpropanoyl)piperidin-4-yl]-2-fluorophenyl}-1-(pyridazin-3-yl)azetidine-3-carboxamide] — within 1.5-fold, 2.7 nM
- O=C(Nc1ccc(C2CCN(C(=O)C3CC3)CC2)cc1F)C1CN(c2cccnn2)C1 [Example 860, N-{4-[1-(cyclopropylcarbonyl)piperidin-4-yl]-2-fluorophenyl}-1-(pyridazin-3-yl)azetidine-3-carboxamide] — 4-fold higher, 10 nM
- CC1(C(=O)N2CCC(c3ccc(NC(=O)C4CN(c5cccnn5)C4)c(F)c3)CC2)CC1 [Example 861, N-(2-fluoro-4-{1-[(1-methylcyclopropyl)carbonyl]piperidin-4-yl}phenyl)-1-(pyridazin-3-yl)azetidine-3-carboxamide] — 3-fold higher, 7.58 nM
- O=C(Nc1ccc(C2CCN(C(=O)CC3CC3)CC2)cc1F)C1CN(c2cccnn2)C1 [Example 862, N-{4-[1-(cyclopropylacetyl)piperidin-4-yl]-2-fluorophenyl}-1-(pyridazin-3-yl)azetidine-3-carboxamide] — 3.4-fold higher, 8.49 nM
- O=C(Nc1ccc(C2(F)CCN(C(=O)c3ccccc3)CC2)cc1)C1CN(c2cccnn2)C1 [Example 863, N-[4-(1-benzoyl-4-fluoropiperidin-4-yl)phenyl]-1-(pyridazin-3-yl)azetidine-3-carboxamide] — 2.2-fold higher, 5.67 nM
- CC(C)(C)C(=O)N1CCC(F)(c2ccc(NC(=O)C3CN(c4cccnn4)C3)cc2)CC1 [Example 864, N-{4-[1-(2,2-dimethylpropanoyl)-4-fluoropiperidin-4-yl]phenyl}-1-(pyridazin-3-yl)azetidine-3-carboxamide] — 2.1-fold higher, 5.29 nM
- COCCn1nc(C(C)(C)C)cc1-c1ccc(NC(=O)C2CN(c3cccnn3)C2)cc1 [Example 865, N-{4-[3-tert-butyl-1-(2-methoxyethyl)-1H-pyrazol-5-yl]phenyl}-1-(pyridazin-3-yl)azetidine-3-carboxamide] — 1.6-fold higher, 4.06 nM
- CCCCn1nc(C(C)(C)C)cc1-c1ccc(NC(=O)C2CN(c3cccnn3)C2)cc1 [Example 866, N-[4-(1-butyl-3-tert-butyl-1H-pyrazol-5-yl)phenyl]-1-(pyridazin-3-yl)azetidine-3-carboxamide] — 3.1-fold higher, 7.92 nM
- CC(C)(C)c1cc(-c2ccc(NC(=O)C3CN(c4cccnn4)C3)cc2)n(CC2CCOCC2)n1 [Example 867, N-{4-[3-tert-butyl-1-(tetrahydro-2H-pyran-4-ylmethyl)-1H-pyrazol-5-yl]phenyl}-1-(pyridazin-3-yl)azetidine-3-carboxamide] — 3.1-fold higher, 7.84 nM
- O=C(Nc1ccc(C2CCN(C(=O)c3ccccc3F)CC2)cc1F)C1CN(c2ccnnc2)C1 [Example 868, N-{2-fluoro-4-[1-(2-fluorobenzoyl)piperidin-4-yl]phenyl}-1-(pyridazin-4-yl)azetidine-3-carboxamide] — within 1.5-fold, 2.29 nM
- O=C(Nc1ccc(C2CCN(C(=O)c3ccccc3)CC2)cc1F)C1CN(c2ccnnc2)C1 [Example 869, N-[4-(1-benzoylpiperidin-4-yl)-2-fluorophenyl]-1-(pyridazin-4-yl)azetidine-3-carboxamide] — within 1.5-fold, 1.98 nM
- CC(C)(C)C(=O)N1CCC(c2ccc(NC(=O)C3CN(c4ccnnc4)C3)c(F)c2)CC1 [Example 870, N-{4-[1-(2,2-dimethylpropanoyl)piperidin-4-yl]-2-fluorophenyl}-1-(pyridazin-4-yl)azetidine-3-carboxamide] — within 1.5-fold, 3.2 nM
- CC(C)(C)CC(=O)N1CCC(c2ccc(NC(=O)C3CN(c4ccnnc4)C3)c(F)c2)CC1 [Example 871, N-{4-[1-(3,3-dimethylbutanoyl)piperidin-4-yl]-2-fluorophenyl}-1-(pyridazin-4-yl)azetidine-3-carboxamide] — within 1.5-fold, 3.61 nM
- O=C(Nc1ccc(C2CCN(C(=O)CCC(F)(F)F)CC2)cc1F)C1CN(c2ccnnc2)C1 [Example 872, N-{2-fluoro-4-[1-(4,4,4-trifluorobutanoyl)piperidin-4-yl]phenyl}-1-(pyridazin-4-yl)azetidine-3-carboxamide] — 9.4-fold higher, 23.6 nM

Test system: not given
Experiment: not given
Settings: collagen induced arthritis; cited from earlier work

For O=C(/C=C/c1cccnc1)NCCCCC1CCN(C(=O)c2ccccc2)CC1 [FK866], the “efficacy in animal models of arthritis” value is listed as “efficacious”.
